# Test results reported in paper PMC9613624 (Journal of medicinal chemistry, 2022).
# Entries after “also recorded” stand apart in the source; their conditions may differ.
# Experiments:
# [1] = system: SW620 cells; experiment: Cell death monitoring with DRAQ7 in SW620 cells; assay type: cell-based; details: 5 μM, DRAQ7, 0-72 h
# [2] = system: P-PRAS40; experiment: Western blotting of P-PRAS40 in SW620 cells; details: 1 μM, 18 h, Figure S4
# [3] = target: T1, AKT1 (Homo sapiens, UniProt P31749); experiment: Western blotting of AKT isoforms in SW620 cells; assay type: cell-based; details: Figure S3
# T1 sequence (P31749 whole entry, canonical isoform): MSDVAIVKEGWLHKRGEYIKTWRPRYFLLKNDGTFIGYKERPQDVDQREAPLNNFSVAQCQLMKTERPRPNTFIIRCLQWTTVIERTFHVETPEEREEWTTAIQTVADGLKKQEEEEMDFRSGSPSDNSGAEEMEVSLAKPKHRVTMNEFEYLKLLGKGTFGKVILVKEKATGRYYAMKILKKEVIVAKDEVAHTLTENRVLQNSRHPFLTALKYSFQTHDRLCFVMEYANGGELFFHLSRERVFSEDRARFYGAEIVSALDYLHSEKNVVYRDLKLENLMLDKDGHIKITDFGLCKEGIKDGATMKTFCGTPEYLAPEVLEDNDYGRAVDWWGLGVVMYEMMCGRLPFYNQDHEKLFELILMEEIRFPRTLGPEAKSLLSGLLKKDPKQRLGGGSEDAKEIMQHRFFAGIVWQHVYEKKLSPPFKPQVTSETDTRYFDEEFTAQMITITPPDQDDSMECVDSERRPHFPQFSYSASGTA
# [4] = target: T1, AKT1; experiment: Global TMT MS-based quantitative proteomic study in SW620 cells; assay type: cell-based; details: 1 μM, 18 h, approximately 6433 proteins detected
# [5] = system: AKT; experiment: Western blotting of T-AKT in HT-29 cells; assay type: cell-based; details: HT-29 cells (BRAF mutant), 1 μM, 24 h
# [6] = target: T2, AKT2 (Homo sapiens, UniProt P31751); experiment: Global TMT MS-based quantitative proteomic study in SW620 cells; assay type: cell-based; details: 1 μM, 18 h, 62 compared to 63
# T2 sequence (P31751 whole entry): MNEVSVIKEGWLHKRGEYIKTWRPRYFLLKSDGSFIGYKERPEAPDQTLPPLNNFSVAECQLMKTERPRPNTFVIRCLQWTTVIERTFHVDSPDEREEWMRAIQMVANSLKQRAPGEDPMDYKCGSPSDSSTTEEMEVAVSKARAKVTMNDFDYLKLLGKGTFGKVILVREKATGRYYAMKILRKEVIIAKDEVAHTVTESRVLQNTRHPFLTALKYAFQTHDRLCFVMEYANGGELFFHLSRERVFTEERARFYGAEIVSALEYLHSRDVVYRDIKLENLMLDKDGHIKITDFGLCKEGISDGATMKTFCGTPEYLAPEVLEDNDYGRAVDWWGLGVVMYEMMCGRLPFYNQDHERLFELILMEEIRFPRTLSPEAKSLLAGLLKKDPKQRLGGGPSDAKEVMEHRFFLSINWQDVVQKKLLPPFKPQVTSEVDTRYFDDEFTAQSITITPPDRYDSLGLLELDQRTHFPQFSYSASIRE
# [7] = system: AKT; experiment: Western blotting of T-AKT in SW620 cells; assay type: cell-based; details: for effect on AKT protein levels at high concentrations (in words): concentrations up to 10 μM
# [8] = system: AKT; experiment: Western blotting of T-AKT in Colo205 cells; assay type: cell-based; details: Colo205 cells (BRAF mutant), 1 μM, 24 h
# [9] = system: AKT; experiment: Western blotting of T-AKT in Mia PaCa-2 cells; assay type: cell-based; details: Mia PaCa-2 cells (KRAS mutant), Figure S2A
# [10] = system: AKT; experiment: Western blotting of T-AKT in SKMEL 239 cells; assay type: cell-based; details: SKMEL 239 cells (BRAF mutant), 1 μM, 24 h
# [11] = target: T2, AKT2; experiment: Western blotting of AKT isoforms in SW620 cells; assay type: cell-based; details: Figure S3
# [12] = Mouse pharmacokinetic study; assay type: in vivo, male Swiss Albino mice; details: mice, single IP dose 75 mg/kg
# [13] = system: AKT; experiment: Western blotting of T-AKT in PANC-1 cells; assay type: cell-based; details: 24 h
# [14] = system: SW620 cells; experiment: Colony formation assay in SW620 cells; assay type: cell-based; details: 2 weeks, crystal violet
# [15] = target: T2, AKT2; experiment: AKT activity inhibition assay; assay type: biochemical; details: 10 μM ATP
# [16] = target: T1, AKT1; experiment: AKT activity inhibition assay; assay type: biochemical; details: 10 μM ATP
# [17] = target: AKT3 (Homo sapiens, UniProt Q9Y243); experiment: AKT activity inhibition assay; assay type: biochemical; details: 10 μM ATP
# AKT3, sequence (Q9Y243 whole entry): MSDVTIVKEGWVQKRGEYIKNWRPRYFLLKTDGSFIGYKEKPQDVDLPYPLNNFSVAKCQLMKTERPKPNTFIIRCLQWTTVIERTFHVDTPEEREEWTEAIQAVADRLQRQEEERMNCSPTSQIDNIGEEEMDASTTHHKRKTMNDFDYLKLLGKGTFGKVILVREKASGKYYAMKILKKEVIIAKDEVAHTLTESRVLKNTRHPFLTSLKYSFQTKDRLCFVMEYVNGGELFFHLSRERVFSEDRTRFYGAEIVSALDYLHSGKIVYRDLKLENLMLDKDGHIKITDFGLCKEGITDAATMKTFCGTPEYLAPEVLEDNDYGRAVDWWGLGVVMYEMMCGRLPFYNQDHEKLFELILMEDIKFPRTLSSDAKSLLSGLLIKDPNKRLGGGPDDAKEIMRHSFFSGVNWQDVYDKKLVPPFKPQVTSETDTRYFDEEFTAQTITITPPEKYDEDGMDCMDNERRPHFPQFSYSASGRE
# [18] = system: SW620 cells; experiment: Cell proliferation assay; assay type: cell-based; details: 5 days, IncuCyte
compound,measurement,setting,value
"Cc1ncsc1-c1ccc([C@H](C)NC(=O)[C@@H]2C[C@@H](O)CN2C(=O)[C@@H](NC(=O)CCCCCCCCCCNC(=O)CCc2cccc(-c3ccc4nc(-c5cccnc5N)n(-c5ccc(C6(N)CCC6)cc5)c4n3)c2)C(C)(C)C)cc1 [Compound 62, (2S,4R)-1-((S)-2-(11-(3-(3-(3-(4-(1-Aminocyclobutyl)phenyl)-2-(2-aminopyridin-3-yl)-3H-imidazo[4,5-b]pyridin-5-yl)phenyl)propanamido)undecanamido)-3,3-dimethylbutanoyl)-4-hydroxy-N-((S)-1-(4-(4-methylthiazol-5-yl)phenyl)ethyl)pyrrolidine-2-carboxamide]",induction of cell apoptosis / percent cell death (in words),[1],most effectively
same,"P-PRAS40 inhibition (western blot verification for proteomics, in words)",[2],inhibited
same,"AKT1 degradation (western blot, in words)",[3],potently induced
same,AKT1 protein level in TMT proteomics (in words),[4],reduced significantly
same,proteome-wide degradation selectivity (in words),[4],generally selective AKT degrader
same,T-AKT degradation (in words),[5],more effective than MS21
same,AKT2 protein level in TMT proteomics (in words),[6],also reduced
same,"T-AKT degradation (western blot, in words)","[7]; SW620 cells (KRAS mutant), Figure S2",effectively and completely depleted T-AKT; also recorded: much more effective than MS21
same,T-AKT degradation (in words),"[7]; SW620 cells, 30 nM, 24 h",substantial T-AKT depletion
same,T-AKT degradation (in words),"[7]; SW620 cells, 100 nM, 24 h",nearly complete AKT degradation
same,"T-AKT level (western blot verification for proteomics, in words)","[7]; SW620 cells, 1 μM, 18 h, Figure S4",significantly reduced
same,T-AKT degradation in time-course study (in words),"[7]; SW620 cells, 1 μM, at 4 h",Significant AKT degradation
same,T-AKT degradation in time-course study (in words),"[7]; SW620 cells, 1 μM, at 12 h, maintained for at least another 12 h",Near complete AKT degradation
same,T-AKT protein level in time-course study (in words),"[7]; SW620 cells, 1 μM, up to 24 h",time-dependently reduced T-AKT protein levels
same,effect on AKT protein levels at high concentrations (in words),"[7]; SW620 cells, 24 h",no “hooker effect” was observed
same,DC50,"[7]; read-out: DC50, T-AKT degradation, SW620 cells, 24 h, western blot",0.023 ± 0.016 µM
same,T-AKT degradation (in words),[8],more effective than MS21
same,"T-AKT degradation (western blot, in words)",[9],modestly induced AKT degradation
same,T-AKT degradation (in words),[10],more effective than MS21
same,"AKT2 degradation (western blot, in words)",[11],potently induced
same,clinical signs during the PK study,[12],No clinical signs were observed
same,plasma concentrations,[12]; maintained for at least 12 h,above 100 nM
same,T-AKT degradation (in words),"[13]; PANC-1 cells (KRAS mutant), 1 μM",near-complete AKT degradation
same,T-AKT degradation (in words),"[13]; PANC-1 cells, 100 nM",complete degradation
same,T-AKT degradation at high concentrations (in words),"[13]; PANC-1 cells, concentrations up to 10 μM",no “hooker effect” was observed
same,inhibition of colony formation (in words),[14],significantly inhibited colony formation
"Cc1ncsc1-c1ccc([C@H](C)NC(=O)[C@H]2C[C@H](OCc3ccccc3)CN2C(=O)[C@@H](NC(=O)CCCCCCCCCCNC(=O)CCc2cccc(-c3ccc4nc(-c5cccnc5N)n(-c5ccc(C6(N)CCC6)cc5)c4n3)c2)C(C)(C)C)cc1 [Compound 64, (2R,4S)-1-((S)-2-(11-(3-(3-(3-(4-(1-Aminocyclobutyl)phenyl)-2-(2-aminopyridin-3-yl)-3H-imidazo[4,5-b]pyridin-5-yl)phenyl)propanamido)undecanamido)-3,3-dimethylbutanoyl)-4-(benzyloxy)-N-((S)-1-(4-(4-methylthiazol-5-yl)phenyl)ethyl)pyrrolidine-2-carboxamide]",decrease of AKT2 inhibition potency compared to 62,[15],6 fold
same,decrease of AKT1 inhibition potency compared to 62,[16],1.5 fold
same,effect on AKT protein levels at high concentrations (in words),"[7]; SW620 cells, 24 h",no effect
same,decrease of AKT3 inhibition potency compared to 62,[17],3.6 fold
same,cell growth inhibition (in words),[18],inactive
